# In patent US12151019B2, “Compositions for blood storage and transfusions” (Albert Einstein College of Medicine, priority 2020, dated 2024):
# Assay: Loading potential / solubility in PEG400/myristic acid vehicles and in water
# Assay type: physicochemical
# Details: for dissolved material in aqueous solution: aqueous sample compared with Sample 3
# Method: Vehicles for loading the active ingredient were prepared as illustrated in samples 1-4. Myristic acid (solid flakes) was dissolved in PEG400 upon warming the mixture in a warm water bath. Shaking accelerated the formation of the resulting clear solution. The following four concentrations of myristic acid (MA) in PEG400 were prepared and evaluated. Samples 1, 2, 3 and 4 were all clear solutions when the samples were allowed to attain ambient temperatures. • a. 30 ml of PEG400+1.5 grams of MA (Sample 1) • b. 30 ml of PEG400+3 grams of MA (Sample 2) • c. 30 ml of PEG400+0.75 grams of MA (Sample 3) • d. 30 ml of PEG400+2.25 grams of MA (Sample 4)
# The samples as vehicles were loaded with NO enhancing agent. […] Samples 1 and 2 were initially liquid but formed a solid uniform gel over a period of several hours. Sample 3 was prepared by dissolving 0.75 grams of MA in 30 ml's of PEG400 and heating in a water bath (˜60-80 C) for ˜15 minutes. Sample 4 was prepared by dissolving 2.25 grams of MA in 30 mls of PEG400 and heating in a water bath (˜60-80 C) for ˜15 minutes. Both sample 3 and sample 4 were uniform solutions when the heating cycle was finished. Upon cooling sample 3 remained liquid whereas sample 4 formed a uniform gel.
# The addition of water to the PEG400/MA based formulation can create a nonuniform emulsion that poses difficulties for topical use.
# The Sample 3 solvent system was also tested as a vehicle for loading potential with the following low solubility reagents using the above method: quercetin, berberine, N-acetyl cysteine amide (NACA) and N-acetyl cysteine ethyl ester (NAC-ethylester).
SMILES,"dissolving of added curcumin in PEG400/myristic acid (1.5 grams of Curcumin 95 added to Samples 1, 2, 3 (30 ml PEG400 + MA), warmed, shaken, cooled to ambient)",dissolved material in aqueous solution,solubility of quercetin in sample 3 or sample 4 (either sample 3 or sample 4 vehicle)
COc1cc(/C=C/C(=O)CC(=O)/C=C/c2ccc(O)c(OC)c2)ccc1O [Curcumin 95],dissolving of almost all of the added curcumin,–,–
COc1ccc2cc3[n+](cc2c1OC)CCc1cc2c(cc1-3)OCO2 [berberine],–,minimal dissolved material,–
O=c1c(O)c(-c2ccc(O)c(O)c2)oc2cc(O)cc(O)c12 [quercetin],–,minimal dissolved material,200-300 mg quercetin in 30 ml
